“Also recorded” adds a separate entry of the source.
Legend:
[1] = system: food deprived Wistar rats; experiment: Food intake after i.c.v. injection of melanocortin peptides; assay type: in vivo, rat
Procedure: (§1) Adult male Wistar rats (50-60 days old, 230-260 g at the beginning of the experiment) were maintained in individual cages under controlled temperature (23° C.) and reverse lighting (1000-2200 lights off). Standard laboratory chow (NZ Stockfeed Ltd) and tap water were available ad libitum during the adaptation phase. During this time animals were handled daily to minimize the effects of stress on food intake during experiments. Body weight was measured daily before, and one week after cannulation. Any animal showing signs of illness, such as weight loss, poor grooming, or decreased activity, was removed from the study. All animal procedures undertaken were approved by the Animal Ethics Committee of the University of Auckland.
(§2) After 7 days of adaptation, animals were subject to cannula placement surgery under 3% halothane/O2 anaesthesia. A permanent lateral ventricle infusion cannula (6-mm 21 gauge) was placed on top of the dura at 7.5 mm anterior from stereotaxic zero, 1.5 mm to the right of the mid-sagittal line, and secured to the skull with dental cement. Animals were allowed at least 7 days to recover from surgery before injections.
(§3) Rats were fasted overnight before the day of experiment.
Under 3% halothane/O2 anaethesia rats were infused icv through a 12-mm 27-gauge needle, connected to 20-cm length tubing attached to a syringe. Infusions were performed in the early dark phase between 1000 and 1130 hr using motor driven infusion pumps at a rate of 1.0 μl/min over 10 min. Movement of a 0.2 ml air-space introduced between the 0.9% saline solution filling the PE10 tubing-syringe system and the test solution served as an indicator of a successful infusion. […]
Following infusion, the cannula was left in place for 1 min, removed, and the animal returned to its cage with fresh pre-weighed food and water. At 3 h post-injection, the pellets and collected food spillage in the cage, were weighed and this weight was subtracted from the initial weight to quantify the amount of food eaten over 3 h.
The significance of treatment effects was evaluated using one-way ANOVA (Systat10 package)

[2] = system: hypothalamic proteins; experiment: Hypothalamic proteome analysis after i.c.v. injection; assay type: in vivo, rat
Procedure: Alpha-MSH and desacetyl-α-MSH both couple melanocortin receptors to either adenylyl cyclase or calcium-signalling pathways in vitro. To characterise the signal transduction pathways engaged by α-MSH and desacetyl-α-MSH in vivo, rats received an intracerebroventricular (i.c.v.) injection of either phosphate buffered saline (PBS), α-MSH or desacetyl-α-MSH. Three hours later, food intake was measured and hypothalamic tissues were collected for 2D gel electrophoresis-based proteome analysis.
as §1, §2, §3
Under 3% halothane/O2 anaethesia rats were infused icv through a 12-mm 27-gauge needle, connected to 20-cm length tubing attached to a syringe. Infusions were performed in the early dark phase between 1000 and 1130 hr using motor driven infusion pumps at a rate of 1.0 μl/min over 10 min. Movement of a 0.2 ml air-space introduced between the 0.9% saline solution filling the PE10 tubing-syringe system and the test solution served as an indicator of a successful infusion. At the end of each experiment animals were euthanised by pentobarbital overdose, and cannula placement was confirmed by visual inspection of the cannula tip location within the brain ventricular system.
Only one of these proteins was common to α-MSH and desacetyl-α-MSH. A combination of Reverse-phase HPLC followed by Edman protein sequencing, and peptide mass fingerprinting technique using MALDI-TOF mass spectrometry were used to identify the proteins of interest. The proteomic data provide a snap-shot of the protein expression patterns in the hypothalamus 3 hours post i.c.v. administration of the melanocortin peptides.

[3] = system: 3T3 L1 adipocytes; experiment: Leptin production in differentiated 3T3 L1 adipocytes (peptide stimulation assay); assay type: cell-based, murine; conditions: for mean leptin level: one assay; for Leptin Response, Mean: 4 hours, 2 assays combined
Procedure: • 2.1 The objective of this study was to determine the effects of a-MSH and desacetyl a-MSH on leptin and triglyceride production in murine 3T3 L1 adipocytes. • 2.2 Pre-adipocytes were seeded in 6-well plates and 2 days post confluence (Day 2) were differentiated with […] indomethacin+5 ug/mL insulin (described in previous documents). • 2.3 On Day 13 adipocytes were stimulated with 4 doses each of a-MSH and desacetyl a-MSH (or no peptide added) for 4 hours. • 2.4 Medium was removed from the wells and leptin and triglyceride levels measured. • 2.5 Intracytoplasmic lipid accumulation was measured by staining with Oil red O.
• 4.1 Medium=a-MEM+0.5% BSA (100 mL a-MEM+0.5 g BSA) • 4.2 Doses of a-MSH and da-MSH (stocks in −80° C. freezer=1 ug/ul), using MW of a-MSH. • 1 M=1665 g/L=1665 mg/mL • 1 mM=1.665 mg/mL • 1 uM=1.665 ug/mL • 1.665 ug/mL=3.3 ug/2 mL in each well • 1/10 dilution of 1 ug/ul (stock)=0.1 ug/ul. 33 ul=3.3 ug. • Prepare 1/10 dilution of freezer stock (1 ug/ul) to make 0.1 ug/ul, using a-MEM+0.5% BSA as diluent. • Make 3 serial dilutions of 1/10 to add 33 ul to each well in 6-well plate. • Doses are in triplicate wells, so require 3×33=99 ul for each dose.
• 5.1 Assay is performed on Day 14 after initiation of cell differentiation. On day prior to stimulation assay, replace growth medium+insulin with medium prepared in 4.1 (a-MEM+0.5% BSA) and return plates to incubator. • 5.2 On Day of assay prepare peptide solutions as in 4.2 and IBMX as in 4.3. • 5.3 Replace medium with the same medium supplemented with 1 mM IBMX (as in 4.3) and allow cells to equilibrate in incubator for 10 minutes. • 5.4 Add increasing concentrations of peptides (or none), 33 ul per well, swirl gently to mix, and place plates in incubator for 4 hours. • 5.5 At the end of the incubation remove media from wells and store triplicate aliquots in −20° C. freezer for measurement of leptin and triglycerides. • 5.6 Stain adipocytes in wells with Oil Red O as in “Oil Red O Staining of Adipocyte” document. • 5.7 After eluting the stain, remove cells from wells as in 6.0 for measuring total protein.
Leptin Assays Quantikine M kit (R & D Systems Inc, UK # MOB00 Abingdon, Oxon) and DSL kit (DSL #10-24100, Australia PTY Ltd, NSW, Australia) were used. […] The Quantikine M kit is preferred as it is more sensitive and precise.

[4] = hypothalamus, 3 h after i.c.v. injection, rats

## SYSMEHFRWGKPV [desacetyl-α-MSH, non-acetylated form of α-MSH, obtained from Bachem]
[1]; 10 μg i.c.v., first study
  effect on food intake over 3 h vs PBS: not significantly different from the PBS treated control group
[1]; 10 μg i.c.v., first study, listed as Desacetyl-α-MSH
  effect on food intake over 3 h vs PBS: no significant effect on feeding
[1]; 50 μg i.c.v., second study
  effect on food intake over 3 h vs PBS: significantly reduce food intake; also recorded: significantly decreased food intake
[2]; 3 hours post i.c.v., p<0.05
  number of hypothalamic proteins with expression significantly different from PBS: 20
[2]; [4]
  Cu/Zn superoxide dismutase (p1347), effect compared to control: 1.4 fold decrease
  Protein disulfide isomerase (p261), effect compared to control: 1.4 fold decrease
  gamma-enolase (p1438), effect compared to control: 1.7 fold decrease
  glyceraldehyde-3-phosphate-dehydrogenase (p1210), effect compared to control: 1.4 fold decrease
  phosphatidylethanolamine binding protein (p1267), effect compared to control: 2.5 fold decrease
  triosephosphate isomerase (p1521), effect compared to control: 1.4 fold decrease
[3]; 1 nM single peptide
  effect on leptin production: appears to reduce leptin production
  mean leptin level: 480.4 pg/mL
[3]; 1 nM
  Leptin Response, Mean: 95.4 % of control
[3]; 10 nM
  Leptin Response, Mean: 96.3 % of control
[3]; 100 nM single peptide
  mean leptin level: 528.0 pg/mL
[3]; 100 nM
  Leptin Response, Mean: 97.7 % of control
[3]; 1000 nM
  Leptin Response, Mean: 109.4 % of control

Source: US20090118194A1, “Measurement of melanocortin peptides and uses thereof” (Auckland UniServices Limited, priority 2002, published 2009)
